Reference: ChEMBL document CHEMBL3779853, “Target β-catenin/CD44/Nanog axis in colon cancer cells by certain N'-(2-oxoindolin-3-ylidene)-2-(benzyloxy)benzohydrazides” (Bioorg Med Chem Lett, 2016)
The source made the active and inactive calls. The rule behind the calls is not given here.

Tests used:
LoVo [1] = assay: Cytotoxicity against high CD44 expressing human LoVo cells after 48 hrs by WST-1 assay; assay type: functional, cell-based
HT-29 = assay: Cytotoxicity against low CD44 expressing human HT-29 cells after 48 hrs by WST-1 assay; assay type: functional, cell-based
TCF4-CTNNB1 complex = molecular target: T1, TCF4-CTNNB1 complex (Homo sapiens, UniProt P35222+Q9NQB0); assay: Inhibition of human GST tagged Tcf4/beta catenin interaction after 2 hrs using fluorescent AP Attophos substrate by ELISA analysis; assay type: protein-complex assay
T1 sequence (P35222 whole entry): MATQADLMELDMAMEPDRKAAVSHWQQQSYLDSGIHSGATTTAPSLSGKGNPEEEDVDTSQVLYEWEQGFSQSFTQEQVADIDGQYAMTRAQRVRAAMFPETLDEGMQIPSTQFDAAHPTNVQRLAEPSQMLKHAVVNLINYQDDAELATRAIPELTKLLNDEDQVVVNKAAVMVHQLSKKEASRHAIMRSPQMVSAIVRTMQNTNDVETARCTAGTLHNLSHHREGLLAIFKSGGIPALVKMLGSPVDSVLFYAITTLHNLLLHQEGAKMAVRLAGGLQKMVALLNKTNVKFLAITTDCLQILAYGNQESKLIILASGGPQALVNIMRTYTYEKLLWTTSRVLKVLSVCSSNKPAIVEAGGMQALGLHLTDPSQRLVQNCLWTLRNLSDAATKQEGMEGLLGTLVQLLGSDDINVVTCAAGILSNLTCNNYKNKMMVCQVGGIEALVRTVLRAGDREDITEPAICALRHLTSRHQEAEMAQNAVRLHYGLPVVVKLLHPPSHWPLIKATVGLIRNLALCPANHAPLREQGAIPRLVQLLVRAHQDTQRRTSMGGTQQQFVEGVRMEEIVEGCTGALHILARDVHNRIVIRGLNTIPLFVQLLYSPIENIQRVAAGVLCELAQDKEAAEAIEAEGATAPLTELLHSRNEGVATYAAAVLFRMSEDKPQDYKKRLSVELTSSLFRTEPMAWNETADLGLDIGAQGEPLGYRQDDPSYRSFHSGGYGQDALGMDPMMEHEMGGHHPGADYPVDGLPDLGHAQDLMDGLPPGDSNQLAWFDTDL
T1 sequence (P15884 whole entry): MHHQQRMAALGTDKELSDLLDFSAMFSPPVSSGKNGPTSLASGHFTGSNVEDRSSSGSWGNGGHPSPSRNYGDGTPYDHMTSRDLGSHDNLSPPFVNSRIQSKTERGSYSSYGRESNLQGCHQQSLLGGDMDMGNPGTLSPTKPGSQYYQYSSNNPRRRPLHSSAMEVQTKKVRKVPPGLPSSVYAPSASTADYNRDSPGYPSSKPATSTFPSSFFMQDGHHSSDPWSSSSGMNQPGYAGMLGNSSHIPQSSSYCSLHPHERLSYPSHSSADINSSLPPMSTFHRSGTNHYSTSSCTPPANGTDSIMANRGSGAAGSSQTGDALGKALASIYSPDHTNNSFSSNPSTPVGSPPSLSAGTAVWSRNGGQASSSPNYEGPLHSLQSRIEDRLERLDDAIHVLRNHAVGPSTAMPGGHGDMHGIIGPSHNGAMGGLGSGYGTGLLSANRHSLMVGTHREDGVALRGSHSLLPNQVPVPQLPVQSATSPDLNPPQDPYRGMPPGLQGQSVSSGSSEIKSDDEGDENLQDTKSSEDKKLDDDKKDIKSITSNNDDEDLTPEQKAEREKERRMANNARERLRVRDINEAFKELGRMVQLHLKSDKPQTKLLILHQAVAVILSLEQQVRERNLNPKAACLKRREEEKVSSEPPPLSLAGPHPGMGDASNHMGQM

[2] = Cell cycle arrest in low CD44 expressing human […] cells assessed as accumulation at G2 phase at 5 to 10 uM; assay type: functional, cell-based
[3] = Cell cycle arrest in high CD44 expressing human […] cells assessed as accumulation at G2 phase at 5 to 10 uM; assay type: functional, cell-based
LoVo [4] = assay: Downregulation of Sox2 expression in human LoVo cells at 10 uM after 48 hrs by RT-PCR analysis; assay type: functional, cell-based
LoVo [5] = assay: Downregulation of Oct-4 expression in human LoVo cells at 10 uM after 48 hrs by RT-PCR analysis; assay type: functional, cell-based
[6] = Cell cycle arrest in low CD44 expressing human […] cells assessed as accumulation at M phase at 5 to 10 uM; assay type: functional, cell-based
[7] = Cell cycle arrest in high CD44 expressing human […] cells assessed as accumulation at M phase at 5 to 10 uM; assay type: functional, cell-based
[8] = Inhibition of Wnt/beta catenin pathway (unknown origin) in human LoVo cells transfected with TCF/LEF reporter plasmid assessed as GFP expression at 2.5 uM after 48 hrs by flow cytometric analysis (reference value: 3.7%); assay type: cell-based; design: scale not given: the % may be the effect or the level left
[9] = Inhibition of Wnt/beta catenin pathway (unknown origin) in human LoVo cells transfected with TCF/LEF reporter plasmid assessed as GFP expression at 5 uM after 48 hrs by flow cytometric analysis (reference value: 3.7%); assay type: cell-based; design: scale not given: the % may be the effect or the level left
[10] = Cell cycle arrest in low CD44 expressing human […] cells assessed as accumulation at S phase at 5 to 10 uM; assay type: functional, cell-based
[11] = Inhibition of Wnt/beta catenin pathway assessed as downregulation of CD44-mediated Nanog expression in human LoVo cells at 2.5 to 10 uM after 48 hrs by RT-PCR analysis; assay type: cell-based
[12] = Cell cycle arrest in high CD44 expressing human […] cells assessed as accumulation at S phase at 5 to 10 uM; assay type: functional, cell-based
[13] = Inhibition of Wnt/beta catenin pathway (unknown origin) in human LoVo cells transfected with TCF/LEF reporter plasmid assessed as GFP expression at 10 uM after 48 hrs by flow cytometric analysis (reference value: 3.7%); assay type: cell-based; design: scale not given: the % may be the effect or the level left
[14] = Homo sapiens, HT-29, 48 h, read-out: IC50

| SMILES | IC50 (LoVo [1]) | IC50 (HT-29; [14]) | IC50 (HT-29; ht-29) | IC50 (TCF4-CTNNB1 complex) | also measured |
| --- | --- | --- | --- | --- | --- |
| CN(C)CN1C(=O)/C(=N\NC(=O)c2ccccc2OCc2ccccc2)c2ccccc21 | 12.9 µM | 48.8 µM |  |  |  |
| CCCN(CCC)CN1C(=O)/C(=N\NC(=O)c2ccccc2OCc2ccccc2)c2ccccc21 | 19.8 µM | 95.5 µM |  |  |  |
| CN(CCO)CN1C(=O)/C(=N\NC(=O)c2ccccc2OCc2ccccc2)c2ccccc21 | 22.4 µM |  | Not Active |  |  |
| O=C(N/N=C1\C(=O)N(CN2CCOCC2)c2ccccc21)c1ccccc1OCc1ccccc1 | 16.3 µM |  | Not Active |  |  |
| COC(=O)c1c(C)cc2c(c1O)[C@@]1(O)C(=O)c3cc4c(c(O)c3C(=O)[C@]1(OC)[C@H](O)C2)C(=O)C=C(NC1O[C@H](C)[C@@H](OC)[C@H](O)[C@@H]1OC)C4=O (some centres undefined) |  |  |  | 0.64 µM |  |
| CCN(CC)CN1C(=O)/C(=N\NC(=O)c2ccccc2OCc2ccccc2)c2ccccc21 | 14.8 µM | 84.8 µM |  |  |  |
| CN(Cc1ccccc1)CN1C(=O)/C(=N\NC(=O)c2ccccc2OCc2ccc(Cl)cc2)c2ccccc21 | 17.2 µM |  | Not Active |  |  |
| CCCC(=O)c1cc2c(c(O)c1C)C(=O)C(=O)c1c(O)cccc1-2 |  |  |  | 2.4 µM |  |
| O=C(N/N=C1\C(=O)N(CN2CCCCC2)c2ccccc21)c1ccccc1OCc1ccccc1 | 22.4 µM |  | Not Active |  |  |
| CCCCN(CCCC)CN1C(=O)/C(=N\NC(=O)c2ccccc2OCc2ccccc2)c2ccccc21 | 27.2 µM | 203 µM |  |  |  |
| COc1c(CC(C)OC(=O)Oc2ccc(O)cc2)c2c3c(CC(C)OC(=O)c4ccccc4)c(OC)c(=O)c4c(O)cc(OC)c(c5c(OC)cc(O)c(c1=O)c52)c43 (centres undefined) |  |  |  | 3.2 µM |  |
| CN(Cc1ccccc1)CN1C(=O)/C(=N\NC(=O)c2ccccc2OCc2ccccc2)c2ccccc21 | 24.9 µM |  | Not Active |  | Activity [2]: inactive; Activity [3]: Active; Activity (LoVo [4]): inactive; Activity (LoVo [5]): inactive; Activity [6]: inactive; Activity [7]: Active; Activity [8]: 2.2%; Activity [9]: 2%; Activity [10]: inactive; Activity [11]: Dose-dependent effect; Activity [12]: Active; Activity [13]: 1.7% |
| COc1c(CC(C)OC(=O)c2c(C)cc(O)cc2O)c2c3c(CC(C)OC(=O)c4c(C)cc(O)cc4O)c(OC)c(=O)c4c(O)cc(OC)c(c5c(OC)cc(O)c(c1=O)c52)c43 (centres undefined) |  |  |  | 4.1 µM |  |
